Test results published in ChEMBL document CHEMBL1201862, “PubChem BioAssay data set” (2004).
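Following 48 hours of exposure in 96-well plates, responses at five concentrations were used to interpolate endpoints linearly. Here, GI50 denotes the concentration required for 50% inhibition of growth.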 Activity calls are given as the source filed them. No stated cut-off is given here; in the data, active = GI50 up to about 1.1 µM and inactive = higher.

Legend:
Test in all cases: DTP human tumour cell line panel, 48 h
UACC-257 = test system: UACC-257
SW-620 = test system: SW-620
NCI/ADR-RES = test system: NCI/ADR-RES
SK-OV-3 = test system: SK-OV-3
HCC 2998 = test system: HCC 2998
PC-3 = test system: PC-3
OVCAR-3 = test system: OVCAR-3
NCI-H23 = test system: NCI-H23
CCRF-CEM = test system: CCRF-CEM
DU-145 = test system: DU-145
SNB-19 = test system: SNB-19
SNB-75 = test system: SNB-75
HT-29 = test system: HT-29
IGROV-1 = test system: IGROV-1
SK-MEL-28 = test system: SK-MEL-28
SN12C = test system: SN12C
NCI-H522 = test system: NCI-H522
NCI-H460 = test system: NCI-H460
HOP-92 = test system: HOP-92
A549 = test system: A549

Measured: GI50

C(=N\NC1=NCCN1)/c1cccc2cc3ccncc3nc12
inactive: UACC-257 9.89 µM | SW-620 1.94 µM | NCI/ADR-RES 3.24 µM | SK-OV-3 11.3 µM | HCC 2998 5.71 µM | PC-3 3.67 µM | OVCAR-3 4.81 µM | NCI-H23 11.5 µM | DU-145 7.23 µM | SNB-19 9.53 µM | HT-29 1.71 µM | IGROV-1 3.24 µM | SK-MEL-28 10.1 µM | SN12C 3.15 µM | NCI-H522 3.33 µM | NCI-H460 4.36 µM | A549 6.76 µM
active: CCRF-CEM 1.1 µM | SNB-75 0.259 µM | HOP-92 1 µM

CCN(CC)CC[S+]([O-])c1c2cc(OC)ccc2nc2ccc(OC)cc12 (stereo not given)
inactive: UACC-257 5.08 µM | SW-620 3.03 µM | NCI/ADR-RES 19.6 µM | SK-OV-3 21.6 µM | HCC 2998 18.3 µM | PC-3 12 µM | OVCAR-3 3.39 µM | NCI-H23 7.64 µM | CCRF-CEM 3.14 µM | DU-145 1.91 µM | SNB-19 22.7 µM | SNB-75 19.6 µM | HT-29 3.44 µM | IGROV-1 2.54 µM | SK-MEL-28 14.7 µM | SN12C 4.49 µM | NCI-H460 27.7 µM | HOP-92 3.28 µM | A549 24.9 µM
active: NCI-H522 0.603 µM

COc1ccc(/C=C2\CCC(CNc3cc(C)on3)C2=O)cc1 (stereo not given)
inactive: UACC-257 > 94.6 µM | SW-620 > 100 µM | NCI/ADR-RES > 54 µM | SK-OV-3 > 92.5 µM | HCC 2998 > 44.9 µM | PC-3 > 100 µM | OVCAR-3 > 100 µM | NCI-H23 > 78.2 µM | CCRF-CEM > 100 µM | DU-145 > 83.6 µM | SNB-19 64.4 µM | SNB-75 29.4 µM | HT-29 > 100 µM | IGROV-1 98.2 µM | SK-MEL-28 > 100 µM | SN12C > 100 µM | NCI-H522 79.8 µM | NCI-H460 > 78.5 µM | HOP-92 > 100 µM | A549 > 88.7 µM
